According to ChEMBL document CHEMBL1136666, “Indanyl piperazines as melatonergic MT2 selective agents” (Bioorg Med Chem Lett, 2003):

How the values were obtained:
[1] = target: T1, Melatonin receptor type 1B (Homo sapiens, UniProt P49286); test: In vitro receptor binding at MT2 (Melatonin) receptor.
T1 sequence (P49286 whole entry): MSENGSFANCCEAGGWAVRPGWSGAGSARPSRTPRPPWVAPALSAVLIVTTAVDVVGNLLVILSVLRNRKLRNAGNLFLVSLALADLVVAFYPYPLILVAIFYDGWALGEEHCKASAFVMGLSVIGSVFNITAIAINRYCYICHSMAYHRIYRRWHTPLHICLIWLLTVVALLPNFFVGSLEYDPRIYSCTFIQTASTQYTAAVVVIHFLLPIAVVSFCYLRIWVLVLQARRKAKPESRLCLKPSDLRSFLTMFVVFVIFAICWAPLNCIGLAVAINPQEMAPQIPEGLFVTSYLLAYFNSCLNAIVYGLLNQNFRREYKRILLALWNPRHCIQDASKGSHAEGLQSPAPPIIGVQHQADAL

[2] = target: Melatonin receptor type 1A (Homo sapiens, UniProt P48039); test: In vitro receptor binding at MT1 (Melatonin) receptor.
[3] = target: T1, Melatonin receptor type 1B; test: Effective concentration against human MT2 (Melatonin) receptor stably expressed in NIH3T3 cells in adenylyl cyclase assay; assay type: functional, cell-based

Melatonin receptor type 1A, sequence (P48039 whole entry): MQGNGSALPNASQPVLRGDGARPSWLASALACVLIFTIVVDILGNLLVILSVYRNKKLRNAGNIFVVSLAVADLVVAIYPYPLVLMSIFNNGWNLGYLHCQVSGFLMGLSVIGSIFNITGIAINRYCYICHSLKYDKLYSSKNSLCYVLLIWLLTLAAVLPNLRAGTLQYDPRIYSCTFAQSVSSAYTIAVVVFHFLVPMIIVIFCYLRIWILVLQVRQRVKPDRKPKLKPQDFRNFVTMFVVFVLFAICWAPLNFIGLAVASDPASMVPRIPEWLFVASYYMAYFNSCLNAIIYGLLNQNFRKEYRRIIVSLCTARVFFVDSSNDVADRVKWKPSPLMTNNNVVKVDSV

Row | SMILES | IC50 [1] [nM] | IC50 [2] [nM] | EC50 [3] [nM]
1 | COc1ccc(F)c(CN2CCN(C(=O)C3CC3)CC2)c1 | 270 | > 1000 | –
2 | COc1ccc2c(c1)C(N1CCN(C(=O)C(C)C)CC1)CC2 (stereo unspecified) | 1.5 | 160 | –
3 | CCC(=O)N1CCN(C2CCc3ccc(OC)cc32)CC1 (stereo unspecified) | 32 | > 1000 | –
4 | COc1ccc(F)c(CN2CCN(C(=O)C(C)C)CC2)c1 | 224 | > 1000 | –
5 | CCCC(=O)N1CCN(C2CCc3ccc(OC)cc32)CC1 (stereo unspecified) | 2.3 | > 1000 | –
6 | COc1ccc2c(c1)[C@@H](N1CCN(C(=O)C(C)C)CC1)CC2 | > 1000 | > 1000 | –
7 | COc1ccc2c(c1)C(N1CCN(C(=O)C3CC3)CC1)CC2 (stereo unspecified) | 3 | 156 | –
8 | COc1ccc2c(c1)[C@H](N1CCN(C(=O)C(C)C)CC1)CC2 | 1.5 | 116 | –
9 | COc1ccc(F)c(CN2CCN(C(C)=O)CC2)c1 | > 1000 | > 1000 | –
10 | COc1ccc2cccc(N3CCN(C(=O)C4CC4)CC3)c2c1 | 90 | > 1000 | –
11 | CCNC(=O)N1CCN(C2CCCc3ccc(OC)cc32)CC1 (stereo unspecified) | 94 | > 1000 | –
12 | CCNC(=O)N1CCN(c2cccc3ccc(OC)cc23)CC1 | > 1000 | > 1000 | –
13 | COc1ccc2c(c1)[C@H](N1CCN(C(=O)C3CC3)CC1)CC2 | 1.6 | 44.5 | –
14 | CCNC(=O)N1CCN([C@H]2CCc3ccc(OC)cc32)CC1 | > 1000 | > 1000 | –
15 | COc1ccc2c(c1)[C@@H](N1CCN(C(=O)C3CC3)CC1)CC2 | > 1000 | > 1000 | –
16 | COc1ccc2c(c1)C(N1CCN(C(=O)C3CC3)CC1)CCC2 (stereo unspecified) | 75 | > 1000 | –
17 | COc1ccc2c(c1)C(N1CCN(C(C)=O)CC1)CC2 (stereo unspecified) | 44 | > 1000 | –
18 | CCCCC(=O)N1CCN(C2CCc3ccc(OC)cc32)CC1 (stereo unspecified) | 103 | > 1000 | –
19 | CCNC(=O)N1CCN([C@@H]2CCc3ccc(OC)cc32)CC1 | 1.7 | 200 | 2.4
20 | CCNC(=O)N1CCN(C2CCc3ccc(OC)cc32)CC1 (stereo unspecified) | 3.1 | > 1000 | –
